Converted amounts (≈) assume the structure as drawn. Where two headings read alike, the source gives them in different places.
How the values were obtained:
[1] = system: woodchuck hepatitis virus (WHV); experiment: Inhibition of WHV replication in chronically infected woodchucks (DNA polymerase activity); assay type: in vivo, woodchucks (Marmota monax); details: for WHV DNA polymerase levels / WHV DNA polymerase levels after cessation of drug administration: other antivirals, dose not given; for virus replication levels: dosages similar to FMAU (2-4 mg/kg per day); for virus replication levels after cessation of treatment: dosages similar to FMAU, soon after cessation
Procedure: All woodchucks bearing chronic active hepatitis virus (Hantz, supra) were administered FMAU twice daily by interperitoneal injections of FMAU in the following dosages:
Studies were then undertaken to evaluate FMAU and FEAU in this animal model using woodchucks naturally chronically-infected with woodchuck hepatitis virus (24). It was assumed that these nucleosides would be anabolized to their nucleoside triphosphates within the animal. WHV replication was measured periodically by the endogenous DNA polymerase activity and by the detection of WHV DNA by the dot-blot hybridization assay. Three different dosages of FMAU and FEAU were investigated. FMAU at 2 mg/kg/day x 5, (given intraperitoneally TABLE VIII
In accordance with the procedures of Example 2, the FEAU inhibition of WHV replication was further studied at different doses administered orally to woodchucks through stomach tubes. Two groups of woodchucks with different initial WHV replication values were examined.
Seven woodchucks with high WHV replication were tested. High replication was defined as over 1000 counts per minute of DNA polymerase activity, and the mean replication was 1600.
Seven woodchucks with low WHV replication were tested. Low replication was defined as lower than 1000 counts per minute of DNA polymerase activity, and the mean replication was 600-800.

physchem = experiment: physchem
Description: Ongoing testing of woodchucks bearing hepatitis virus is being conducted with the following additional pyrimidine nucleoside compounds: FIAC (2′-fluoro-2′-deoxy-arabinosyl-5-iodoocytosine) and FIAU (2′-fluoro-2′-deoxy-arabinosyl-5-iodouracil). As with FMAU, water is the preferred carrier.
If necessary, the solubility of the compounds FMAU, FIAC, and FIAU may be increased by adding acid or base to the aqueous solvent.

HBV DNA polymerase [2] = molecular target: T1, HBV DNA polymerase (Hepatitis B virus genotype D subtype ayw, UniProt P03156); experiment: Time course of DNA synthesis with triphosphate analogs in place of the natural substrate; assay type: biochemical; details: for DNA synthesis with analog substituted for the natural substrate: ara-TTP for dTTP, ara-CTP for dCTP, ACVTP for dGTP; for HBV DNA synthesis after addition of the normal substrate: reaction started with analog instead of normal substrate (ACVTP 5 µM), normal substrate (100 µM dGTP) added after 120 minutes
T1 construct: from tissue; host or cells: serum of an immunosuppressed, HBsAg-positive patient; virions purified on sucrose and CsCl gradients
Procedure: (§1) DNA polymerase was assayed as described by Kaplan et al., J. Virol. 12: 995 (1973) with minor modification. The assay was performed in a 50 µl reaction mixture containing 50 mM Tris-HCl pH 7.5, 40 mM MgCl₂, 60 mM NH₄Cl, 100 µM each dATP, dCTP and dGTP, 0.2-0.7 µM [³H] dTTP (30 Ci/mmol), 10 mM 2-mercaptoethanol, 0.5% Nonidet P-40 and enzyme. The reaction was started by addition of the virus particles with 2-mercaptoethanol and Nonidet P 40. Incubation was at 37°C for 1 hour. Acid insoluble radioactive material was collected on a glass fiber filter (GF/C Whatman). Filters were washed 5 times with cold 5% trichloracetic acid containing 10 mM sodium pyrophosphate, then with 95% ethanol. Radioactivity of the dried filter was measured in a liquid scintillation counter.
To determine the effect of the three analogs on viral DNA synthesis, a time course experiment was performed with HBV DNA polymerase. [³H] dATP was used as the labeled substrate. With all four nucleoside triphosphate substrates, the reaction was linear up to 60 mn. […] The substitution of dTTP by BVdUTP permitted the viral DNA synthesis up to 46% of the control after 3 hours of reaction. This value increased to 67% of the optimal activity after 4 h of reaction.
BVdUTP was the most efficient alternate substrate for both enzymes. The DNA synthesized with BVdUTP as alternate substrate was analyzed by agarose gel electrophoresis. Only incomplete filling of the single-stranded region of HBV or WHV DNA was obtained with BVdUTP.
The effect of ACVTP on HBV DNA synthesis was also studied in a time course experiment. [³H] dTTP was the labeled substrate. The reaction was initiated without dGTP or with 5 µm ACVTP instead of dGTP. Under these conditions, no incorporation of [³H] dTMP could be measured. After 120 minutes of reaction, 100 µM of dGTP was added. In the assay without dGTP only, the addition of dGTP increased DNA synthesis as expected. […] By comparison, when the reaction was started with the same proportion of ACVTP (5 µM) and dGTP (100 µM) a significant DNA synthesis was observed. Similar experiments were carried out with ara-ATP and ara-CTP.

WHV DNA polymerase = molecular target: T2, WHV DNA polymerase (Woodchuck hepatitis B virus, UniProt P03160); experiment: DNA polymerase assay with purified virus particles; assay type: biochemical; details: read-out: ID₅₀ WHV DNA POLYMERASE
T2 construct: The reaction was started by addition of the virus particles with 2-mercaptoethanol and Nonidet P 40; from tissue; host or cells: serum pool of five chronically infected woodchucks (Marmota monax); virions purified on sucrose and CsCl gradients
Description: (§2) HBV particles containing DNA polymerase activity were purified from the serum of an immunosuppressed patient, positive for HBsAG. WHV was obtained from a serum pool of five woodchucks (Marmota monax), chronic carriers of the virus. The woodchucks initially imported from Pennsylvania belonged to a colony followed for over one year by serological tests as reported in Hantz et al., J. Virol. Metho. 7: 45-55 (1983). Virus was purified by centrifugation on sucrose and isopycnic CsCl gradients.
as §1
(§3) The relative sensitivities of both enzymes to ACVTP, FIACTP and BVdUTP were compared using an excess of nucleotides. For each inhibitor, the concentration of the corresponding radioactive triphosphate was maintained at 2 to 3 times the Km value while the remaining nucleotides were in great excess (50 µM).

HBV DNA polymerase [3] = molecular target: T1, HBV DNA polymerase; experiment: DNA polymerase assay with purified virus particles; assay type: biochemical; details: for IC50: concentration of inhibitor giving a 50% inhibition of DNA polymerase activity, read-out: ID₅₀ HBV DNA POLYMERASE; for nature of inhibition (Lineweaver-Burk plots): ACVTP, FIACTP, BVdUTP versus dGTP, dCTP, dTTP respectively, similar for WHV DNA polymerase; for ID₅₀ compared with FIACTP (times more): stated for HBV and WHV DNA polymerases; for relative efficiency as inhibitor of HBV DNA polymerase: excess of nucleotides, similar results with WHV DNA polymerase
Description: as §2, §1, §3

HSV-2 (STRAIN G) = details: cited from earlier work; for MDD: twice a day for 4 days from 5 hr after inoculation, calculated on day 21; for % SURVIVORS: twice a day for 4 days; for %WT GAIN ON DAY 7 / %WT GAIN ON DAY 14 / %WT GAIN ON DAY 21 / %WT GAIN ON DAY 30: compared to day 1
[4] = concentration of inhibitor giving a 50% inhibition of DNA polymerase activity

T2 sequence (P03160 whole entry): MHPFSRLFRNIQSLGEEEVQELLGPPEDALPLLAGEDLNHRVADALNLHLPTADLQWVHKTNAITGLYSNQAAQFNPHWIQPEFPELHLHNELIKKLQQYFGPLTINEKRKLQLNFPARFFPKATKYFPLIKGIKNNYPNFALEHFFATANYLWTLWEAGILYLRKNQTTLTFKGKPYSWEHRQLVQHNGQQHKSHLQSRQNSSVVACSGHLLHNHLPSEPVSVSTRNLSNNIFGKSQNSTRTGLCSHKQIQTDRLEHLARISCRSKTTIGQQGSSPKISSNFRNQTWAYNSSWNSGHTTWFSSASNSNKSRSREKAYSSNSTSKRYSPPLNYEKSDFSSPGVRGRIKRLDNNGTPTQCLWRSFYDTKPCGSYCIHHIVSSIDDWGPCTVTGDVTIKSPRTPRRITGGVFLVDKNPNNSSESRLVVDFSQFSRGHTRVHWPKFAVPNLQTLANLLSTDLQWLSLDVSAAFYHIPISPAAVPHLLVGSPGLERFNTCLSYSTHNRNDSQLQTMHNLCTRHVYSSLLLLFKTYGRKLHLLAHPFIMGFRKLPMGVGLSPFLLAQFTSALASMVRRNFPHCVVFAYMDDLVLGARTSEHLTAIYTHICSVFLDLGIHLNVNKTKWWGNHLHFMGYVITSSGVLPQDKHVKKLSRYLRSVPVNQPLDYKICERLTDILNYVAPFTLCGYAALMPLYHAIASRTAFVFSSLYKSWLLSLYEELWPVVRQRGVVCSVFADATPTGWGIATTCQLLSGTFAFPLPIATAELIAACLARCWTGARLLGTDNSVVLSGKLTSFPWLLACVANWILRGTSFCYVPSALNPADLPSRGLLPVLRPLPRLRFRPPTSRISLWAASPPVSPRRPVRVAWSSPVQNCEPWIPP
T1 sequence (P03156 whole entry): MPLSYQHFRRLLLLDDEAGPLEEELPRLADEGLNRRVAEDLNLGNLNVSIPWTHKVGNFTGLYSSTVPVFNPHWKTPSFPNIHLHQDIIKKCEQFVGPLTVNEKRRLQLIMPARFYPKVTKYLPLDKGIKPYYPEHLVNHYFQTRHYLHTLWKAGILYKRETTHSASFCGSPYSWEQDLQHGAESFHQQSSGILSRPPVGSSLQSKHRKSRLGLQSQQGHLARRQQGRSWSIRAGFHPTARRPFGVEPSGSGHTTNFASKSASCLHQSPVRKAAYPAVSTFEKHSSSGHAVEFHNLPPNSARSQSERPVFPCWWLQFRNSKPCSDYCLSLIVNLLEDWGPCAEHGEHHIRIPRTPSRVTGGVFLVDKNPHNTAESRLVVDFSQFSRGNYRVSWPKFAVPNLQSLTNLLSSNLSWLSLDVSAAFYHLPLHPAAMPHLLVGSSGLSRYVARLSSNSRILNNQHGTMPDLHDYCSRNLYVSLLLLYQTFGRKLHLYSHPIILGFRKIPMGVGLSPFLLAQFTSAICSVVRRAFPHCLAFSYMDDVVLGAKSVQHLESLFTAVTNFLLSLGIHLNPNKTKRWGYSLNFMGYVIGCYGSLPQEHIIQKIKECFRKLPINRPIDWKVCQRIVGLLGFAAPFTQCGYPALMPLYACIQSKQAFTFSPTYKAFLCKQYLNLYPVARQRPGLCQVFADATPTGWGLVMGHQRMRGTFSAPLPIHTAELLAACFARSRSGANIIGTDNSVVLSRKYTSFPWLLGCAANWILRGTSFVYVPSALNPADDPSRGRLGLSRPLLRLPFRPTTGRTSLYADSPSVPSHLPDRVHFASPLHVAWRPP

Nc1nc2c(ncn2COC(CO)CO)c(=O)[nH]1 [DHPG]
WHV DNA polymerase levels [1]: diminished | WHV DNA polymerase levels after cessation of drug administration [1]: rebounded to pretreatment levels

O=c1[nH]c(=O)n([C@@H]2O[C@H](CO)[C@@H](O)[C@@H]2F)cc1I [FIAU, 2′-fluoro-2′-deoxy-arabinosyl-5-iodouracil]
solubility (physchem): increased many fold

Cc1cn([C@@H]2O[C@H](COP(=O)(O)OP(=O)(O)OP(=O)(O)O)[C@@H](O)[C@@H]2O)c(=O)[nH]c1=O [ara-TTP]
DNA synthesis with analog substituted for the natural substrate (HBV DNA polymerase [2]): no significant DNA synthesis | IC50 (WHV DNA polymerase; [4]): 400 nM | IC50 (HBV DNA polymerase [3]): 300 nM

O=c1[nH]c(=O)n([C@H]2C[C@H](O)[C@@H](COP(=O)(O)OP(=O)(O)OP(=O)(O)O)O2)cc1/C=C/Br [BVdUTP]
IC50 (WHV DNA polymerase; [4]): 300 nM | nature of inhibition (Lineweaver-Burk plots) (HBV DNA polymerase [3]): competitive | IC50 (HBV DNA polymerase [3]): 250 nM | ID₅₀ compared with FIACTP (times more) (HBV DNA polymerase [3]): 5 times

Nc1nc(=O)n([C@@H]2O[C@H](CO)[C@@H](O)[C@@H]2F)cc1I [FIAC, 1-(2'-deoxy-2'-fluoro-beta-D-arabinofuranosyl)-5-iodocytosine]
toxicity (previous results) ([1]; woodchucks, previous results): lethal toxicity | solubility (physchem; aqueous hydrochloric acid): ~250 mg/mL (≈ 674 mM)

Cc1cn([C@@H]2O[C@H](COP(=O)(O)OP(=O)(O)OP(=O)(O)O)[C@@H](O)[C@@H]2F)c(=O)[nH]c1=O [FMAU-TP]
IC50 (WHV DNA polymerase): 50 nM | IC50 (HBV DNA polymerase [3]): 25 nM

Nc1nc2c(ncn2COCCOP(=O)(O)OP(=O)(O)OP(=O)(O)O)c(=O)[nH]1 [ACVTP]
DNA synthesis with analog substituted for the natural substrate (HBV DNA polymerase [2]): did not increase the polymerization process | HBV DNA synthesis after addition of the normal substrate (HBV DNA polymerase [2]): no DNA synthesis was observed | IC50 (WHV DNA polymerase; [4]): 700 nM | nature of inhibition (Lineweaver-Burk plots) (HBV DNA polymerase [3]): competitive | IC50 (HBV DNA polymerase [3]): 900 nM | ID₅₀ compared with FIACTP (times more) (HBV DNA polymerase [3]): 18 times

Nc1ncnc2c1ncn2[C@@H]1O[C@H](COP(=O)(O)OP(=O)(O)OP(=O)(O)O)[C@@H](O)[C@@H]1O [ara-ATP]
HBV DNA synthesis after addition of the normal substrate (HBV DNA polymerase [2]): increased the HBV DNA synthesis

Nc1nc2c(ncn2COCCO)c(=O)[nH]1 [acyclovir]
virus replication levels [1]: diminished | virus replication levels after cessation of treatment [1]: rebounded to pretreatment levels

Nc1ccn([C@@H]2O[C@H](COP(=O)(O)OP(=O)(O)OP(=O)(O)O)[C@@H](O)[C@@H]2O)c(=O)n1 [ara-CTP]
DNA synthesis with analog substituted for the natural substrate (HBV DNA polymerase [2]): no significant incorporation | HBV DNA synthesis after addition of the normal substrate (HBV DNA polymerase [2]): increased the HBV DNA synthesis | IC50 (WHV DNA polymerase; [4]): 1200 nM | IC50 (HBV DNA polymerase [3]): 1100 nM | relative efficiency as inhibitor of HBV DNA polymerase (HBV DNA polymerase [3]): least efficient

CCc1cn([C@H]2C[C@H](O)[C@@H](CO)O2)c(=O)[nH]c1=O [EDU, 5-ethyl-2′-deoxyuridine, reference compound]
MDD (HSV-2 (STRAIN G); EDU 800 MG/KG/DAY): 7.6 | % SURVIVORS (HSV-2 (STRAIN G); EDU 800 MG/KG/DAY): 13% | %WT GAIN ON DAY 7 (HSV-2 (STRAIN G); EDU 800 MG/KG/DAY): -10% | %WT GAIN ON DAY 14 (HSV-2 (STRAIN G); EDU 800 MG/KG/DAY): -6% | %WT GAIN ON DAY 21 (HSV-2 (STRAIN G); EDU 800 MG/KG/DAY): 2% | %WT GAIN ON DAY 30 (HSV-2 (STRAIN G); EDU 800 MG/KG/DAY): 6% | MDD (HSV-2 (STRAIN G); EDU 1000 MG/KG/DAY): 8.6 | % SURVIVORS (HSV-2 (STRAIN G); EDU 1000 MG/KG/DAY): 33% | %WT GAIN ON DAY 7 (HSV-2 (STRAIN G); EDU 1000 MG/KG/DAY): 3% | %WT GAIN ON DAY 14 (HSV-2 (STRAIN G); EDU 1000 MG/KG/DAY): 13% | %WT GAIN ON DAY 21 (HSV-2 (STRAIN G); EDU 1000 MG/KG/DAY): 34% | %WT GAIN ON DAY 30 (HSV-2 (STRAIN G); EDU 1000 MG/KG/DAY): 43%

Nc1nc(=O)n([C@@H]2O[C@H](COP(=O)(O)OP(=O)(O)OP(=O)(O)O)[C@@H](O)[C@@H]2F)cc1I [FIACTP]
IC50 (WHV DNA polymerase; [4]): 100 nM | nature of inhibition (Lineweaver-Burk plots) (HBV DNA polymerase [3]): competitive | relative efficiency as inhibitor of HBV DNA polymerase (HBV DNA polymerase [3]): most efficient inhibitor

Nc1ncnc2c1ncn2[C@@H]1O[C@H](COP(=O)(O)O)[C@@H](O)[C@@H]1O [ara-AMP]
virus replication levels [1]: diminished | virus replication levels after cessation of treatment [1]: rebounded to pretreatment levels | WHV DNA polymerase levels [1]: diminished | WHV DNA polymerase levels after cessation of drug administration [1]: rebounded to pretreatment levels

Nc1ncc2ncn(COCCO)c2n1 [6-deoxy-acyclovir]
WHV DNA polymerase levels [1]: diminished | WHV DNA polymerase levels after cessation of drug administration [1]: rebounded to pretreatment levels

Source: patent EP0338042B1, “COMPOSITION AND METHOD FOR TREATING HEPATITIS VIRUS INFECTIONS USING 1-(2'-DEOXY-2'-FLUORO-BETA-D-ARABINOFURANOSYL)-5-ETHYLURACIL” (priority 1987, dated 1989)
